The record followed here is ChEMBL document CHEMBL5604062, “ASAP - ZIKV NS2B-NS3 protease fluorescence dose response” (2024).

Where “and” joins values, the source holds several entries; their conditions need not be identical. Equal entries are not always repeated.

Broadly, the IC50 is the concentration needed to halve the response being measured. Low values mean greater potency, high ones weaker potency.

Sequence of Nonstructural protein 3 (A0A024AXB9 whole entry): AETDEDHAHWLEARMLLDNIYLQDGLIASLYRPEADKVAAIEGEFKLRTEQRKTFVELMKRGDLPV

This assay concerns the target Nonstructural protein 3 (Zika virus, UniProt A0A024AXB9). As to the kind of experiment: Functional biochemical assay to identify treatments for viral infectious disease that targets Zika NS2B-NS3 protease. Utilizing a direct enzyme activity measurement method, reading the fluorescence intensity is used to characterize the relative potency of inhibitors as IC50. Also noted: species or system PRVABC59.
Take `CC(C)NC(=O)[C@H](Nc1ccc2c(c1)CNC2)c1cc(Cl)cc2[nH]c(-c3ccccc3)nc12`: the IC50 was 42 nM and 19 nM and 54 nM and 33 nM and 16 nM and 69 nM. To `Cc1c(C(=O)Nc2cc(C3(C)OCCO3)ccn2)cc(C2CC2)n1C` belongs above 25000 nM; to `Cc1ncc(-c2cc(F)cc(C(=O)Nc3ccc4c(c3)CNC4)c2)o1`, 152 nM; to `O=C(Nc1cc2c(cc1Br)CNC2)c1cc(Cl)cc2[nH]ncc12`, 51 nM and 34 nM. Next, `O=C(Nc1cc(-c2cccnc2)ccn1)c1cc2n(n1)CCO2`: above 25000 nM; `Cc1c(C(=O)Nc2cccc([C@H]3CCOC3)c2)cc(C2CC2)n1C`: above 25000 nM.

For the molecule `O=C(Nc1cc(-c2cccnc2)ccn1)c1csc(C[C@H]2CCNC2)n1`, the IC50 is above 25000 nM. To `O=C(Nc1cc(-c2cccnc2)ccn1)c1nc(C2CC2)co1` belongs above 25000 nM.

As for `O=C(Nc1cc(-c2cccnc2)ccn1)c1cc2n(n1)CCC2`, the IC50 is above 25000 nM. Next, `CNC(=O)[C@H](Nc1cc(Cl)cc2[nH]ncc12)c1ccc2c(c1)CNC2`: 3990 nM; `Cc1c(C(=O)Nc2cc(-c3cccnc3)ccn2)cc(C2CCCC2)n1C`: above 25000 nM; `C=CC[C@H]1NCc2cc(N[C@H](C(=O)NC(C)C)c3cccc4[nH]ncc34)ccc21`: above 25000 nM. Next, `COCCNC(=O)[C@H](Nc1cccc([C@H]2CCOC2)c1)c1cc(Cl)cc2[nH]ncc12`: above 25000 nM.

For `O=C(Nc1cc(-c2cccnc2)ccn1)c1csc(C[C@H]2CCCNC2)n1`, the IC50 is above 25000 nM.

`CC(C)n1cc(C(=O)Nc2cc(-c3cccnc3)ccn2)c2ccccc21` gave an IC50 above 25000 nM.

Turning to `O=C(Nc1cc([C@H]2CCOC2)ccn1)c1cc(F)cc2[nH]ccc12`, the IC50 is above 25000 nM. Next, `O=C(Nc1cc(-c2cccnc2)ccn1)c1cccc(C2CC2)c1`: above 25000 nM; `CNC(=O)[C@H](Nc1ccc2c(c1)CNC2)c1cccc2[nH]c(C(F)(F)F)nc12`: 3420 nM.

For `O=C(NCC(F)F)[C@H](Nc1ccc2c(c1)CNC2)c1cc(F)cc2[nH]ccc12`, half-maximal inhibition (IC50) required 199 nM.

Molecule `O=C(Nc1ccc2c(c1)CNC2)c1cc(Cl)cc2[nH]c(-c3cn[nH]c3)cc12` came in with an IC50 above 25000 nM.

`Cc1c(C(=O)Nc2cc(-c3cccnc3)ccn2)cc(C2CCCCC2)n1C` showed a 50% inhibitory concentration (IC50) above 12500 nM.

Take `O=C(Nc1ccc2c(c1)CNC2)c1cc(Cl)cc2[nH]c(COc3ccccn3)nc12`: it took 210 nM to reach half-maximal inhibition (IC50). Next, `O=C1OCc2ccc(NC(=O)c3cc(F)cc4[nH]ncc34)cc21`: above 25000 nM. Next, `O=C(Nc1cc(-c2cccnc2)ccn1)c1cnn2c1CCC2`: above 25000 nM; `O=C(NCCC1CC1)[C@H](Nc1ccc2c(c1)CNC2)c1cc(Cl)cc(C2CC2)c1`: 74 nM and 49 nM. To `O=C1Cc2c(C(=O)Nc3ccc4c(c3)CNC4)ccnc2N1` belongs 22800 nM; to `O=C(Nc1cc([C@H]2CCOC2)ccn1)c1cc(Cl)cc2c1CCC2`, above 25000 nM. `Cc1c(CN)c(C(=O)Nc2cc(-c3cccnc3)ccn2)nn1C` showed a half-inhibitory concentration (IC50) above 25000 nM.

`Cc1c(C(=O)Nc2cc(-c3cccnc3)ccn2)cc(-c2ccccc2)n1C`: the IC50 is above 25000 nM.

In the case of `O=C(Nc1cc(-c2cccnc2)ccn1)c1nnc(C2CC2)s1`, the IC50 is above 25000 nM.

`O=C(Nc1ccc2c(c1)C(=O)OC2)c1ccc2c(c1)CNC2` yielded an IC50 above 25000 nM.

`O=C(Nc1ccc2c(c1)CS(=O)(=O)C2)c1cc(Cl)cc2[nH]ncc12` registered a half-maximal inhibitory concentration (IC50) above 25000 nM. Next, `Cc1c(C(=O)Nc2cc(SC3COC3)ccn2)cc(C2CC2)n1C`: above 25000 nM; `O=C(Nc1ccc2c(c1)CNC2)c1cc(F)cc(-c2cccnc2)c1`: 90 nM and 87 nM. Next, `O=C(Nc1ccc2c(c1)CNC2)c1cc(Cl)cc2[nH]c(-c3cnccc3O)nc12`: 395 nM. Next, `O=C(Nc1cc(Br)c2c(c1)CNC2)c1cc(F)cc2[nH]ncc12`: 27 nM and 15 nM; `O=C(Nc1ccc2c(c1)CNC2)c1cc(C(F)(F)F)c2cn[nH]c2n1`: above 25000 nM; `O=C(NCC(F)F)[C@H](Nc1ccc2c(c1)CNC2)c1cc(F)cc2[nH]ncc12`: 58 nM and 37 nM. Regarding `Cc1oc(C2CC2)nc1C(=O)Nc1cc(-c2cccnc2)ccn1`, the IC50 is above 25000 nM. Next, `Cc1c(C(=O)Nc2cccc(-c3cccnc3)c2)cc(C2CC2)n1C`: above 25000 nM.

Consider `CNC(=O)[C@H](Nc1cccc([C@H]2CCOC2)c1)c1cc(C2CC2)n(C)n1`, for which the IC50 was above 25000 nM. Next, `NCc1cc(Cl)cc(C(=O)Nc2cc([C@H]3CCOC3)ccn2)c1`: above 25000 nM. Next, `Cc1c(C(=O)Nc2cc(-c3cccnc3)ccn2)cc(C(C)(C)C)n1C`: above 25000 nM. Next, `Cn1c(C2CC2)cc(C(=O)Nc2cc(-c3cccnc3)ccn2)c1C1CC1`: above 25000 nM; `Cc1c(C(=O)Nc2ccnc(O[C@H]3CCOC3)c2)cc(C2CC2)n1C`: above 25000 nM; `O=C(NCC1CCCCC1)[C@H]1CCCN1C(=O)Nc1ccc2c(c1)CNC2`: above 25000 nM.

In the case of `O=C(Nc1cc2c(c(C3=CC[C@H](O)CC3)c1)CNC2)c1cc(Cl)cc2[nH]ncc12`, the IC50 was 65 nM and 41 nM. Next, `Cn1nc(C2CC2)cc1C(=O)Nc1cc(-c2cccnc2)ccn1`: above 25000 nM; `COCCNC(=O)[C@H](Nc1cccc([C@H]2CCOC2)c1)c1cc(F)cc2[nH]ccc12`: above 25000 nM; `CNC(=O)[C@H](Nc1ccc2c(c1)CNC2)c1cc(Cl)cc2c1OCC2`: 256 nM.

As for `CC(C)NC(=O)[C@H](Nc1ccc2c(c1)CNC2)c1cc(F)cc2[nH]ccc12`, the half-maximal inhibitory concentration (IC50) was 1030 nM. This IC50 lies about 4-fold higher than the previous one. Molecule `C=CC[C@H]1NCc2cc(NC(=O)c3cc(F)cc4c3CC(=O)N4)ccc21` yielded an IC50 of 156 nM. In turn, `NS(=O)(=O)c1cc(F)cc(C(=O)Nc2ccc3c(c2)CNC3)c1` yielded an IC50 of 1490 nM. Against the preceding molecule, the IC50 is about 9.6-fold higher. Next, `O=C(Nc1ccc2c(c1)CNC2)c1ccc2ccncc2c1`: 13900 nM; `O=C(Nc1ccc2c(c1)CNC2)c1cc(F)cc2c1CCNC2`: 115 nM. Regarding `O=C(Nc1ccc2c(c1)CNC2)c1cc(Br)cc2c1nc1n2CCCC1`, the concentration for half-maximal inhibition (IC50) came to 554 nM. To `O=C(Nc1ccc2c(c1)CNC2)c1n[nH]c2ccc(F)cc12` belongs 16900 nM. On to `O=C(Nc1ccc2c(c1)CNC2)c1cc(F)cc(-c2ccnn2CC2CC2)c1`, for which inhibition was half-maximal at 1070 nM (IC50). Next, `Fc1cc(CNc2ccc3c(c2)CNC3)c2cn[nH]c2c1`: 3510 nM; `O=C(Nc1cc(-c2cccnc2)ccn1)c1cc(C2CC2)[nH]n1`: above 25000 nM. Next, `O=C(Nc1cc(-c2cccnc2)ccn1)c1cc2n(n1)CCS2(=O)=O`: above 25000 nM; `O=C1OCc2ccc(NC(=O)c3cc(F)cc4c3CCNC4)cc21`: above 25000 nM; `Cc1c(C(=O)Nc2cccc(-c3ccccc3)c2)cc(C2CC2)n1C`: above 25000 nM.

`Cc1c(C(=O)Nc2cc(-c3cccnc3)ccn2)cc(C2CCC2)n1C` returned an IC50 above 25000 nM. `O=C(Nc1cc(-c2cccnc2)ccn1)c1cc2n(n1)CC(F)(F)C2` gave a half-inhibitory concentration (IC50) above 25000 nM. To `O=C(Nc1ccc2c(c1)CNC2)c1cc(F)cc(-c2cnc(C3CC3)s2)c1` belongs 56 nM and 43 nM. Next, `O=C(Nc1cc(-c2cccnc2)ccn1)c1cc2n(n1)CC1(CC1)C2`: above 25000 nM. To `Nc1nc2c(Br)cc(C(=O)Nc3ccc4c(c3)CNC4)cc2s1` belongs 5070 nM; to `Cc1c(C(=O)Nc2cc(-c3ccccc3)ccn2)cc(C2CC2)n1C`, above 25000 nM.
